Test results taken from patent publication US6653322B1, “Therapeutic combinations of RAR antagonists and RXR agonists and use thereof” (Bristol-Myers Squibb Company, priority 1996, dated 2003).
“Also recorded” adds a separate entry of the source.

What was measured:
NB4 cells [1] = assay: NB4 cell differentiation (TPA-induced nitroblue tetrazolium reduction); assay type: cell-based, human
Protocol: NB4 cells were obtained from ATCC and were grown in RPMI-1640 (plus 2 mM L-glutamine) containing 100 […] penicillin and streptomycin and 8% fetal bovine serum (FBS). Cells were treated for four days with retinoid(s) or ethanol vehicle, then washed and resuspended at a density of 5×10^5 cells/ml. 50 microliter aliquots of this suspension were spread over poly-L-lysine coated slides (Sigma, St. Louis, Mo.). After washing with PBS (137 mM NaCl, 2.7 mM KCl, 4.3 mM Na2HPO4, 1.4 mM KH2PO4), the cells were fixed for 10 minutes in 2% formalin (37% formaldehyde in 15% methanol in water) at room temperature.
Following fixation, cells were washed three times in PBS and were scored by TPA (12-O-tetradecanoyl-phorbol-13-acetate, 200 ng/ml)-induced nitroblue tetrazolium reduction (Sigma Fast BCIP/NBT) for 30 minutes at 37° C. Samples were examined for cellular and nuclear morphology with an optical microscope (Diavert Leitz); the percentage of differentiated cells was determined by counting at least 300 cells for each treatment.

RARβ2 and RARγ mRNA = assay: RARβ/RARγ expression by reverse transcriptase PCR in NB4 cells; assay type: cell-based, human; settings: for Expression of RARβ2 (and RARγ) by RT-PCR: retinoid alone
Protocol: Total RNA was isolated and reverse transcribed in a buffer solution comprising 10 mM Tris-HCl (pH 8.3), 50 mM KCl, 2 mM MgCl2 and 1 mM of all four deoxynucleoside triphosphates, using 25 units of AMV reverse transcriptase in the presence of 50 units of RNAsin for 60 minutes at 42° C. For reverse transcription, 25 picomoles per reaction of the common antisense primer 5′-[…]-3′ (SEQ ID NO:6) for either RARα, β or γ was used. For each PCR reaction the common antisense primer, one-fourth of the reverse transcribed product and the following specific sense primers were used: […]
The amplification was carried out in a final volume of 0.1 ml, using Taq DNA polymerase (Perkin Elmer Cetus) according the manufacturer's instructions. Eighteen PCR cycles (30 seconds at 94° C., 30 seconds at 65° C. and 30 seconds at 72° C.) were performed, and a 10 microliter aliquot of each reaction was analyzed by electrophoresis on a 6% native polyacrylamide gel, which was then stained with ethidium bromide and examined by ultraviolet illumination.

NB4 cells [2] = assay: NB4 cell apoptosis (flow cytometry, DNA fragmentation); assay type: cell-based, human; settings: for Induction of NB4 cell apoptosis: retinoid alone
Protocol: The cell cycle distribution and presence of “sub-2N” cells and particles in control and retinoid-treated NB4 cells were determined by cell cycle flow cytometry based on DNA content, using an EPICS Profile II cell sorter (Coulter Electronics, Inc., Hialeah, Fla.) equipped with a 15 watt argon laser tuned to an excitation wavelength of 488 nm and filter sets providing an emission wavelength of 575 nm. Cultures of untreated or retinoid-treated cells were centrifuged (250×g) and fixed in 70% ethanol and stored at −20° C. Following two washes in PBS, the cells and subcellular particles were incubated in 1 mg/ml RNase A (59 Kunitz units/mg, Sigma Chemical Co., St. Louis, Mo.) for 30 minutes at 37° C., centrifuged and resuspended in PBS at a concentration of approximately 10^6 cells per ml. Ethidium bromide was added to a final concentration of 50 micrograms/ml immediately prior to sample analysis.
The induction of apoptosis by retinoids was also determined by the appearance of a “ladder” of fragmented DNA as previously described (Nagy, L., et al., Mol. Cell. Biol. 15:3540-3551 (1995)). Cells were refed with fresh media and retinoids every 2 days, and the cell density was maintained well below saturation in order to prevent cell death due to nutrient and/or mitogen depletion. Five micrograms per lane of DNA was electrophoresed in a 1.5% agarose gel, followed by staining with ethidium bromide, and DNA bands were visualized and photographed via ultraviolet illumination of ethidium bromide fluorescence.

PML-RARα = target: T1, PML-RARα (Homo sapiens, UniProt P10276+P29590); assay: Anti-PML immunofluorescence: association of PML/PML-RARα with nuclear bodies in NB4 cells; assay type: cell-based; settings: with SR11237
T1 construct: induced the association of endogenous PMUPML-RARα with nuclear bodies; endogenous in cells; host or cells: NB4 human acute promyelocytic leukemia cells
T1 sequence (P10276 61-462 limits assumed): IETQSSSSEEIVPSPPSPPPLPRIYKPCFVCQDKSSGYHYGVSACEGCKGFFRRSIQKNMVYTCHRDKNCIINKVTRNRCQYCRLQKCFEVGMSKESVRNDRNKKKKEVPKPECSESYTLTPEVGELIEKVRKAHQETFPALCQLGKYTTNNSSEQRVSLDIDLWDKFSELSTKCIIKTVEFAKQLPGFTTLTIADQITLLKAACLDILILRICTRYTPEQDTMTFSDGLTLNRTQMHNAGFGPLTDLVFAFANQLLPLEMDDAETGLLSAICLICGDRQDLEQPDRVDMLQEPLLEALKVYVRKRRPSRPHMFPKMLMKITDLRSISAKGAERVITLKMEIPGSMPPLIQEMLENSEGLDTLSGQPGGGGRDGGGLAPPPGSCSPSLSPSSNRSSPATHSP
Protocol: Following fixation, cells were permeabilized with 0.1% Triton X-100 in PBS (buffer A). After washing in PBS, the cells were blocked in 0.5 mg/ml normal goat IgG (Jackson Laboratories, Bar Harbor, Me.) in PBS for 30 minutes at room temperature, and thereafter incubated overnight at 4° C. with a polyclonal anti-PML antibody (the kind gift of Dr. Anne Dejean), diluted in buffer A containing 0.5 mg/ml normal goat IgG (buffer B) at 4° C. After three washes in buffer A, the cells were incubated with donkey anti-rabbit IgG (H+L) conjugated with cyanine 3 (Jackson Laboratories, Bar Harbor, Me.) in buffer B for 1 hour at room temperature. Following washes in PBS the mounted samples were examined with a confocal laser microscope (TCS, Leica) equipped with cyanine optics for PML localization.

AP1 activity = settings: via all three RARs; Chen et al. 1995; cited from earlier work
GAL-RARα = target: T2, GAL-RARα (Homo sapiens, UniProt P10276); assay: HeLa reporter cells, agonistic/antagonistic activity of RAR-specific ligands; assay type: cell-based; settings: FIG. 1, FIG. 2
T2 construct: expressed in transfected cells; host or cells: HeLa
T2 sequence (P10276 183-417 limits assumed): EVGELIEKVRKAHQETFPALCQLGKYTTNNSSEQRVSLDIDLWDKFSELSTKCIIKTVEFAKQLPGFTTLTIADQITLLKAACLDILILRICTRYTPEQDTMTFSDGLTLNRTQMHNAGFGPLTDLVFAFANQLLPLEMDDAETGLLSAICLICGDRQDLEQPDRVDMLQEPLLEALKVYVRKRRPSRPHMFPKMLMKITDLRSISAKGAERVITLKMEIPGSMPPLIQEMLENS
Protocol: (§1) HeLa reporter cell lines containing a retinoid-inducible luciferase reporter gene (17 m)5-globin-Luc in the stably transfected reporter constructs GAL-RARα, GAL-RARβ or GAL-RARγ were constructed and used as described previously (Chen, J. Y., et al., EMBO J. 14:1187-1197 (1995)). Cells were treated with RAR-specific ligands, and luciferase-induced bioluminescence was monitored in vivo using a single-photon-counting camera (Hamamatsu) by seeding equal amounts of cells in 24-well tissue culture plates and incubating them with increasing concentrations of retinoids alone, or in the presence of T-RA to determine the antagonistic potential of the ligands.

GAL-RARβ = target: T3, GAL-RARβ (Homo sapiens, UniProt P10826); assay: as above; assay type: cell-based; settings: FIG. 1
T3 construct: expressed in transfected cells; host or cells: HeLa
T3 sequence (P10826 183-417 limits assumed): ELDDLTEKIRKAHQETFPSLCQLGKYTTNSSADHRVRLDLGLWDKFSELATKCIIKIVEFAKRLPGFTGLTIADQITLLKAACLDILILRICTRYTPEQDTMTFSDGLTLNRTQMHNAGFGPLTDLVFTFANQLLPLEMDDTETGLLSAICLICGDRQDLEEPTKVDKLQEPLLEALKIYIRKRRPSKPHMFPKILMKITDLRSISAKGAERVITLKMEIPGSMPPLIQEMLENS
Protocol: as §1

GAL-RARγ = target: T4, GAL-RARγ (Homo sapiens, UniProt P13631); assay: as above; assay type: cell-based; settings: FIG. 1
T4 construct: expressed in transfected cells; host or cells: HeLa
T4 sequence (P13631 185-419 limits assumed): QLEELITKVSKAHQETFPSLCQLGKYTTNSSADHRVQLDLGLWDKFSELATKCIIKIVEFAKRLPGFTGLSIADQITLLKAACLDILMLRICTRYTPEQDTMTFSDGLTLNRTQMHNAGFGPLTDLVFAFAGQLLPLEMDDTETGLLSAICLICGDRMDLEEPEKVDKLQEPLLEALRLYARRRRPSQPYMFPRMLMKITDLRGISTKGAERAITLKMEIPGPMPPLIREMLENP
Protocol: as §1

F9 EC cells = settings: ligand on its own, Roy et al. 1995; cited from earlier work
P19 cells = settings: ligand on its own, Roy et al. 1995; cited from earlier work
[3] = in presence of RXR agonist SR11237
[4] = retinoid alone at 1 (concentration unit not given), 4 days
[5] = retinoid alone at 10 (concentration unit not given), 4 days
[6] = retinoid alone at 100 (concentration unit not given), 4 days
[7] = retinoid at 1 +100 nM SR11237, 4 days
[8] = retinoid alone at 1000 (concentration unit not given), 4 days
[9] = retinoid at 10 +100 nM SR11237, 4 days
[10] = retinoid at 100 +100 nM SR11237, 4 days

Row | Compound | Induction of NB4 cell differentiation (NB4 cells [1]; [3]) | Percentage of NB4 cells differentiated (NB4 cells [1]; [4]) | Percentage of NB4 cells differentiated (NB4 cells [1]; [5]) | Percentage of NB4 cells differentiated (NB4 cells [1]; [6]) | Percentage of NB4 cells differentiated (NB4 cells [1]; [7]) | Induction of NB4 cell differentiation (NB4 cells [1]; retinoid on its own) | Expression of RARβ2 (and RARγ) by RT-PCR (RARβ2 and RARγ mRNA) | Percentage of NB4 cells differentiated (NB4 cells [1]; [8]) | Percentage of NB4 cells differentiated (NB4 cells [1]; [9]) | Percentage of NB4 cells differentiated (NB4 cells [1]; [10]) | Induction of NB4 cell apoptosis (NB4 cells [2]) | also measured
1 | CC1(C)CCC(C)(C)c2cc(NC(=O)c3ccc(C(=O)O)cc3)ccc21 [Am80] | significantly more efficient at inducing differentiation at low concentrations | 80% | 81% | 80% | 80% | efficiently induced differentiation | induced expression of RARβ2 (and RARγ) was confirmed |  |  |  |  | Percentage of NB4 cells differentiated (NB4 cells [1]; retinoid alone at 0.1 (concentration unit not given), 4 days): <1%; Percentage of NB4 cells differentiated (NB4 cells [1]; retinoid alone at 0.3 (concentration unit not given), 4 days): <1%; Percentage of NB4 cells differentiated (NB4 cells [1]; retinoid alone at 0.5 (concentration unit not given), 4 days): <1%; Percentage of NB4 cells differentiated (NB4 cells [1]; retinoid at 0.1 +100 nM SR11237, 4 days): <1%; Percentage of NB4 cells differentiated (NB4 cells [1]; retinoid at 0.3 +100 nM SR11237, 4 days): 20%; Percentage of NB4 cells differentiated (NB4 cells [1]; retinoid at 0.5 +100 nM SR11237, 4 days): 40%
2 | CC1=C(/C=C/C(C)=C\C=C\C(C)=C\C(=O)O)C(C)(C)CCC1 [Compound 9C-RA, 9-cis (9C-RA) retinoic acid] |  | <1% | 4% | 65% |  |  |  | 70% |  |  |  | 
3 | CC1(C)CC=C(c2ccccc2)c2cc(/C=C/c3ccc(C(=O)O)cc3)ccc21 [Compound A] | induced differentiation with higher efficiency than T-RA or 9C-RA |  |  |  | <1% | ineffective on their own | no induction | <1% | 65% | 78% | inefficient alone | Antiproliferative and apoptotic effect on NB4 cells (NB4 cells [2]; in combination with SR11237): strong antiproliferative and apoptotic effect; RARβ and RARγ mRNA production (RARβ2 and RARγ mRNA; with SR11237): efficient accumulation of RARβ and RARγ mRNA; Association of PML-RARα with nuclear bodies (PML-RARα): indistinguishable from that seen in presence of RARα agonists; Repression of AP1 activity (AP1 activity): efficiently repressing AP1 activity via all three RARs
4 | CC1(C)CC=C(c2cnc3ccccc3c2)c2cc(C(=O)Nc3ccc(C(=O)O)cc3)ccc21 [Compound B] | induced differentiation |  |  |  | <1% | ineffective on their own |  | <1% | 3% | 5% |  | Block of differentiation induced by 1 nM Am80 (NB4 cells [1]; excess of the compound): completely blocked; Percentage of NB4 cells differentiated (NB4 cells [1]; retinoid at 1000 +100 nM SR11237, 4 days): 10%; Binding to RARα (GAL-RARα): lower binding affinity for RARα; Binding to RARβ (GAL-RARβ): does not bind; Binding to RARγ (GAL-RARγ): does not bind
5 | CC1(C)CCC(C)(C)c2cc(C3(c4ccc(C(=O)O)cc4)OCCO3)ccc21 [SR11237] |  |  |  |  |  | ineffective on their own; also recorded: did not induce differentiation |  | <2% |  |  | inefficient alone | Induction of differentiation and expression of RA target genes (F9 EC cells): unable to induce; Induction of differentiation and expression of RA target genes (P19 cells): unable to induce
6 | CC1=C(/C=C/C(C)=C/C=C/C(C)=C/C(=O)O)C(C)(C)CCC1 [T-RA, all-trans retinoic acid] |  | <1% | <1% | 81% |  |  |  | 80% |  |  | extensive apoptosis | 
